Key:
[1] = molecular target: M5 (muscarinic acetylcholine receptor type 5) (Homo sapiens, UniProt P08912); assay: NIMH PDSP secondary binding assay
[2] = molecular target: pure guinea pig sigma-1 receptor (Cavia porcellus, UniProt Q60492); assay: Competitive displacement of [3H]-; type: binding
[3] = molecular target: Kv1.4 potassium channel (Rattus norvegicus, UniProt P15385+Q9R0C9); assay: Whole cell patch clamp, HEK-293 cells co-expressing Kv1.4 and sigma-1 receptor; type: cell-based
[4] = molecular target: M3 (muscarinic acetylcholine receptor type 3) (Homo sapiens, UniProt P20309); assay: NIMH PDSP secondary binding assay
[5] = molecular target: H2 (histamine receptor type 2) (Homo sapiens, UniProt P25021); assay: NIMH PDSP secondary binding assay
[6] = molecular target: M4 (muscarinic acetylcholine receptor type 4) (Homo sapiens, UniProt P08173); assay: NIMH PDSP secondary binding assay
[7] = molecular target: M2 (muscarinic acetylcholine receptor type 2) (Homo sapiens, UniProt P08172); assay: NIMH PDSP secondary binding assay
[8] = molecular target: 5HT2B (serotonin receptor subtype 2B) (Homo sapiens, UniProt P41595); assay: NIMH PDSP secondary binding assay
[9] = molecular target: T1, α-1D (α-adrenergic receptor subtype 1D) (Homo sapiens, UniProt P25100); assay: NIMH PDSP secondary binding assay
T1 sequence (P25100 1-572): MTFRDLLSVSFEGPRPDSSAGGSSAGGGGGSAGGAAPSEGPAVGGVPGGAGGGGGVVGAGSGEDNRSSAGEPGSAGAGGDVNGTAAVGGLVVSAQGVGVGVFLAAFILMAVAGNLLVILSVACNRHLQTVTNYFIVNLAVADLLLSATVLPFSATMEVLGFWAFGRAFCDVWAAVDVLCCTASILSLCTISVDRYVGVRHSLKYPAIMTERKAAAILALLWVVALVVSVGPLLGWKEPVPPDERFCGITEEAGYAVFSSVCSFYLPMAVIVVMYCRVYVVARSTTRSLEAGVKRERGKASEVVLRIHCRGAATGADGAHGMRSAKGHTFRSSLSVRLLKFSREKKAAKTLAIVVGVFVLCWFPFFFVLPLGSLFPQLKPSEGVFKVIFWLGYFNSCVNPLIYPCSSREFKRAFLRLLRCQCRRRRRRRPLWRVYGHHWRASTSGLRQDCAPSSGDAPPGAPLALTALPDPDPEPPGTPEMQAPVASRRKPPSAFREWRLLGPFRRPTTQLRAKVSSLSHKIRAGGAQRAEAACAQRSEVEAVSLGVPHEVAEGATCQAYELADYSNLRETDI

[10] = molecular target: D4 (dopamine receptor type 4) (Homo sapiens, UniProt P21917); assay: NIMH PDSP secondary binding assay
[11] = molecular target: sigma-1 receptor (sigma-1 sites) (Cavia porcellus, UniProt Q60492); assay: Competitive displacement of [3H]-; type: binding, guinea pig
Chain of sigma-1 receptor (sigma-1 sites) (Q60492 whole entry): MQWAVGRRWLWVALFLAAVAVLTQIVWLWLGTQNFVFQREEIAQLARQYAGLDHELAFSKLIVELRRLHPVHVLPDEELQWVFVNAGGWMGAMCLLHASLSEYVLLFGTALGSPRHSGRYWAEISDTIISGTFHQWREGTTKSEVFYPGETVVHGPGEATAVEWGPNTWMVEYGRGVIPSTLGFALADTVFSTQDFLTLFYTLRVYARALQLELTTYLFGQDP

Chain of 5HT2B (serotonin receptor subtype 2B) (P41595 whole entry, species assumed): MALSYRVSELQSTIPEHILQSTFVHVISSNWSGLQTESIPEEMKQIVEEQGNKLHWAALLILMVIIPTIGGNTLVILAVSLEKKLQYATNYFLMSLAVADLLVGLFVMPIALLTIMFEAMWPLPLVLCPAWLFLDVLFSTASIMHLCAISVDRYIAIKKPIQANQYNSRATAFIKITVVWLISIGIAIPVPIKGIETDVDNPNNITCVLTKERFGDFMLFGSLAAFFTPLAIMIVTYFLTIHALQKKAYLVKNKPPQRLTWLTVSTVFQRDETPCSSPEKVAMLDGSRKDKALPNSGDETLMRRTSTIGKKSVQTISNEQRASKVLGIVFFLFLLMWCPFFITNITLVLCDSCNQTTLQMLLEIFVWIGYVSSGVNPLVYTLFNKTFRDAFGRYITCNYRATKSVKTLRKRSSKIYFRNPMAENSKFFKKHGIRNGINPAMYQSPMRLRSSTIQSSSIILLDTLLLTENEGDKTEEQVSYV
Chain of M5 (muscarinic acetylcholine receptor type 5) (P08912 whole entry): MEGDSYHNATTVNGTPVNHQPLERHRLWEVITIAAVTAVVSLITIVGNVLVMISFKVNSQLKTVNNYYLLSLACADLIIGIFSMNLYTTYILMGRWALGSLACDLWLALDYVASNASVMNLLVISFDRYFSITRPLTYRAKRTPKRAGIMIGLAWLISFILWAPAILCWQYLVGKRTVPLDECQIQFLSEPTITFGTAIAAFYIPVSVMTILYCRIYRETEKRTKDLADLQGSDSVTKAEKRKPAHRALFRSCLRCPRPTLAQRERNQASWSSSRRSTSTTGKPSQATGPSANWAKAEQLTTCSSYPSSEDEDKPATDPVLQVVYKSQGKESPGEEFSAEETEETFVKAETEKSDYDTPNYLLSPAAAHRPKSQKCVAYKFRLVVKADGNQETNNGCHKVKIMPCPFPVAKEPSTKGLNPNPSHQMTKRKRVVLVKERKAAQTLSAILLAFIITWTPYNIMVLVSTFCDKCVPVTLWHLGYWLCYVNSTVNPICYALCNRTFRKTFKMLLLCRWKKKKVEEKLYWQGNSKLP
Chain of H2 (histamine receptor type 2) (P25021 whole entry): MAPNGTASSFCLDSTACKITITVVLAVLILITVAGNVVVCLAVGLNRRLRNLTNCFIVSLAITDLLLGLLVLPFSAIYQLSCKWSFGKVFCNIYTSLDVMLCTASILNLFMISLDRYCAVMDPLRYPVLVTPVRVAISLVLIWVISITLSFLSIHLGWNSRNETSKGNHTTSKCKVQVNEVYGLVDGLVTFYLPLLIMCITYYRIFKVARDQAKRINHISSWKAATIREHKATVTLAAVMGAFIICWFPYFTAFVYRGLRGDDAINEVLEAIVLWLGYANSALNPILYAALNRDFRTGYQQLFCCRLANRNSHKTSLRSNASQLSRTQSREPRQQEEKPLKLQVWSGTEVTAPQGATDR
Chain of M3 (muscarinic acetylcholine receptor type 3) (P20309 whole entry): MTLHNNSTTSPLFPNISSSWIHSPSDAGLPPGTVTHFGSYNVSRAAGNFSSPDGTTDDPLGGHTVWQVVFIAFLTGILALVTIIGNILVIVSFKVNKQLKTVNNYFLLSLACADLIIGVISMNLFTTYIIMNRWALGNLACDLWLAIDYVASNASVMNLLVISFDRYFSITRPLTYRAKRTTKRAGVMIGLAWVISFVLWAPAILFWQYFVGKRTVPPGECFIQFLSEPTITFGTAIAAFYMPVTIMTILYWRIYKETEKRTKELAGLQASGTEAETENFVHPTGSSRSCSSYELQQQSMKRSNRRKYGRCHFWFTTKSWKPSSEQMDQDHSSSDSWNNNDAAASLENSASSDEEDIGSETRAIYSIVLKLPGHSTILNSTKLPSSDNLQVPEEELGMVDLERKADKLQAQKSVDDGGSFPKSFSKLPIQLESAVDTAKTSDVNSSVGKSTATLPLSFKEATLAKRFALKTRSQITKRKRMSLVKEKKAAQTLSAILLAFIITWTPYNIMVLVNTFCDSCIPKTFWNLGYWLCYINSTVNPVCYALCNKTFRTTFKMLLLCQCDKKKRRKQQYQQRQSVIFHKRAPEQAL
Chain of M4 (muscarinic acetylcholine receptor type 4) (P08173 whole entry): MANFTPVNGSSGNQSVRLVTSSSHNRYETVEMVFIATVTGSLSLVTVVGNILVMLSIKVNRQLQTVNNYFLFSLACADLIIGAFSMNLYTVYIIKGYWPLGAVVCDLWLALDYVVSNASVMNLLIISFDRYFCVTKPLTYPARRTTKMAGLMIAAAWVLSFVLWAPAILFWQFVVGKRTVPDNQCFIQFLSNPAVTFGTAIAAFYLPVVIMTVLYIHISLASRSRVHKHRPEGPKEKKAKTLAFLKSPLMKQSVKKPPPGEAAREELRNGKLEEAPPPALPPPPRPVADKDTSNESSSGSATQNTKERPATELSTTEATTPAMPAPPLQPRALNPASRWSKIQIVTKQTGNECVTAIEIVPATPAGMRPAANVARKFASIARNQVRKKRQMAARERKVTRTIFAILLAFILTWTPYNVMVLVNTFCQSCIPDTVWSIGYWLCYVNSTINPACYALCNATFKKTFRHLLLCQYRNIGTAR
Chain of M2 (muscarinic acetylcholine receptor type 2) (P08172 whole entry): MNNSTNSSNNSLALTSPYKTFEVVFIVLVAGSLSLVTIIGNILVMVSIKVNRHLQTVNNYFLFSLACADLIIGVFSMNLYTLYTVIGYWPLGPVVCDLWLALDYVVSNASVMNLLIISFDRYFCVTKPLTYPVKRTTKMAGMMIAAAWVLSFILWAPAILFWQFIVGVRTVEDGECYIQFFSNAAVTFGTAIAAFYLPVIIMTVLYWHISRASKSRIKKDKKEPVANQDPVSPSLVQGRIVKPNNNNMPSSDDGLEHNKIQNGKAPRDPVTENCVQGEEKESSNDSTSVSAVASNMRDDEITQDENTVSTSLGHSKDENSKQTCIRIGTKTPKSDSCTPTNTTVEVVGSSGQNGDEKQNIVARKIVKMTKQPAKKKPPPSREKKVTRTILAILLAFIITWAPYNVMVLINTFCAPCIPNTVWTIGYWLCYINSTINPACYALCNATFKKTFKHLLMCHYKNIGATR
Chain of pure guinea pig sigma-1 receptor (Q60492 whole entry): as the sequence (Q60492 whole entry) above
Chain of Kv1.4 potassium channel (P15385 whole entry): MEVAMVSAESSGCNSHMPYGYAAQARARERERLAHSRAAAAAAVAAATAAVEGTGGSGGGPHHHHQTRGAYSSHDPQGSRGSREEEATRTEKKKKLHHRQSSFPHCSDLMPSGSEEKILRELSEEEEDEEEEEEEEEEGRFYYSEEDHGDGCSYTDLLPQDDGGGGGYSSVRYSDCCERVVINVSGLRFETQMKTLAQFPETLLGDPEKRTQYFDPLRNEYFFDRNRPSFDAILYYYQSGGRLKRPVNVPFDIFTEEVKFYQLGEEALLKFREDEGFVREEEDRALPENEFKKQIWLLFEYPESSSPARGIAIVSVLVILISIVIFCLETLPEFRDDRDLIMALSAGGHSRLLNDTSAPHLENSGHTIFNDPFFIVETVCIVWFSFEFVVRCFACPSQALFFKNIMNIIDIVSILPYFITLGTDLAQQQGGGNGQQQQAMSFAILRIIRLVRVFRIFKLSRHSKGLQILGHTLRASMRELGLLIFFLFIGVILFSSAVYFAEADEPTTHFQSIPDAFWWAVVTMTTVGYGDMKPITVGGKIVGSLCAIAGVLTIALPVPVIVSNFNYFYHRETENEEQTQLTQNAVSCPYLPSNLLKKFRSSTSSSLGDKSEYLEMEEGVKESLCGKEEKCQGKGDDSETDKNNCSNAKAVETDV
Chain of Kv1.4 potassium channel (Q9R0C9 whole entry): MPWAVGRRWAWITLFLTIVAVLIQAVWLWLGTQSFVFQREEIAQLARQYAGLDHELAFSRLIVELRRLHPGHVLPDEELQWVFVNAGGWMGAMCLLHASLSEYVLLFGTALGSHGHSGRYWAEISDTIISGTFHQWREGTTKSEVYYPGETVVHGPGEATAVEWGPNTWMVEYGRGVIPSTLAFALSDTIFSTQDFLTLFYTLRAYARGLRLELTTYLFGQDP
Chain of D4 (dopamine receptor type 4) (P21917 whole entry): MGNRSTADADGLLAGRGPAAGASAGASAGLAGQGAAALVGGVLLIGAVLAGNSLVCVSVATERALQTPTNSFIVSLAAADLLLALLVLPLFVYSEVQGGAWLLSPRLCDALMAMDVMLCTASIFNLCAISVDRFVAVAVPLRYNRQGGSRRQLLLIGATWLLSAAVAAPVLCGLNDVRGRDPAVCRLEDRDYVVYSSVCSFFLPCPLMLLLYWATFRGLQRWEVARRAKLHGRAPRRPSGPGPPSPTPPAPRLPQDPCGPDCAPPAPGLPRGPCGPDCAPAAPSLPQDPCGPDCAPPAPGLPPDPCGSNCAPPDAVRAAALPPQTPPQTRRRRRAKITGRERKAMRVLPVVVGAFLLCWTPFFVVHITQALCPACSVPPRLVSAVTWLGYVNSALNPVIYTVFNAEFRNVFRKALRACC

Compound | Ki [1] | Ki [2] | IC50 [3] | Ki [4] | Ki [5] | Ki [6] | Ki [7] | Ki [8] | Ki [9] | Ki [10] | Ki [11]
CCCCCCCNCCCc1ccccc1 [2a, N-(3-Phenylpropyl)heptan-1-amine] | > 10 µM | 0.018 ± 0.014 µM | 10 µM | > 10 µM | > 10 µM | > 10 µM | > 10 µM | > 10 µM | > 10 µM |  | 
CCCCCCCCCCCCNCCCc1ccccc1 [3a, N-(3-Phenylpropyl)dodecan-1-amine] | > 10 µM |  |  | > 10 µM | > 10 µM | > 10 µM | > 10 µM | > 10 µM | > 10 µM | > 10 µM | 
CCCCCCCCCCCCNCCCc1ccc([N+](=O)[O-])cc1 [3b, N-(3-(4-Nitrophenyl)propyl)dodecan-1-amine] | 3.6 µM |  |  |  |  |  |  | 7.9 µM | 9 µM |  | 5.1 ± 0.2 µM

Source: publication PMC3234165 (Biochemistry, 2011)
